Data as given in ChEMBL document CHEMBL5390296, “N-Biphenyl Pyrrolinones and Dibenzofurans as RNA-Binding Protein LIN28 Inhibitors Disrupting the LIN28-Let-7 Interaction” (ACS Med Chem Lett, 2023).
The source made the active and inactive calls. The rule behind the calls is not given here.

Key:
[1] = Inhibition of LIN28A (16 to 187 residues) (unknown origin) expressed in Escherichia coli BL21(DE3)/mouse let-7 interaction at 75 uM incubated for 15 mins in presence of Cy-3-fluorophore labeled RNA by electrophoretic mobility shift assay relative to control
[2] = Inhibition of LIN28A (16 to 187 residues) (unknown origin) expressed in Escherichia coli BL21(DE3)/mouse let-7 interaction incubated for 15 mins in presence of Cy-3-fluorophore labeled RNA by electrophoretic mobility shift assay
[3] = system: let-7i miRNA; assay: Inhibition of let-7i miRNA biogenesis in human JAR cells incubated for 24 hrs by qPCR analysis; type: functional, cell-based; settings: dose 5-20 µM
[4] = species on record: Homo sapiens; assay: Inhibition of LIN28B (24 to 111 residues) (unknown origin) expressed in Escherichia coli BL21(DE3)/mouse let-7 interaction incubated for 15 mins in presence of Cy-3-fluorophore labeled RNA by electrophoretic mobility shift assay; settings: dose 2.3-150 µM
[5] = biological target: T1, Protein lin-28 homolog A (Homo sapiens) (UniProt Q9H9Z2); assay: Binding affinity to recombinant LIN28A CSD (16 to 126 residues) (unknown origin) by biolayer interferometry analysis; settings: dose 1.56-100 µM
T1 sequence (whole entry): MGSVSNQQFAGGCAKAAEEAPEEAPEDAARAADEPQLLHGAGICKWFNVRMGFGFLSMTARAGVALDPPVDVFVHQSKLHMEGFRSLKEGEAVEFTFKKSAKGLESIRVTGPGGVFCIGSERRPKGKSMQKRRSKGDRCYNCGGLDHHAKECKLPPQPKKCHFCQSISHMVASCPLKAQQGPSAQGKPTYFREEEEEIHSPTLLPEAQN

[6] = Inhibition of let-7d miRNA biogenesis in human JAR cells assessed as fold increase in mature […] at 5 to 20 uM incubated for 24 hrs by qPCR analysis; type: functional; settings: dose 5-20 µM
[7] = system: JAR; assay: Inhibition of let-7d miRNA biogenesis in human JAR cells incubated for 24 hrs by qPCR analysis; type: functional, cell-based; settings: dose 5-20 µM
[8] = system: let-7i miRNA; assay: Inhibition of let-7i miRNA biogenesis in human JAR cells assessed as fold increase in mature […] at 5 to 20 uM incubated for 24 hrs by qPCR analysis; type: functional, cell-based; settings: dose 5-20 µM
[9] = biological target: T1, Protein lin-28 homolog A (Homo sapiens); assay: Inhibition of recombinant LIN28A CSD (16 to 126 residues) (unknown origin) assessed as increase in thermal stability at 75 uM incubated for 45 mins by nano differential scanning fluorimetry analysis

Compound | inhibition [1] | further results
O=C(C1=C(O)C(=O)N(c2ccc(O)c(C(=O)O)c2)C1c1ccc([N+](=O)[O-])cc1)c1ccccn1 (centres undefined) | 106% | 
O=C(C1=C(O)C(=O)N(c2ccc(O)c(C(=O)O)c2)[C@H]1c1ccc([N+](=O)[O-])cc1)c1ccc(Cl)cc1 | inactive | 
O=C(O)c1cc(N2C(=O)C(O)=C(Cc3ccccc3)[C@@H]2c2ccc([N+](=O)[O-])cc2)ccc1O | inactive | 
O=C1C(=O)C2(CCCC2=O)C(c2ccc([N+](=O)[O-])cc2)N1c1ccc2oc3ccccc3c2c1 (centres undefined) | inactive | 
O=C(O)c1cc(N2C(=O)c3nn(Cc4ccccc4)c(-c4ccccc4)c3C2c2ccc([N+](=O)[O-])cc2)ccc1O (centres undefined) | inactive | 
NC1=C(C(=O)c2ccccc2)[C@@H](c2ccc([N+](=O)[O-])cc2)N(c2ccc(O)c(C(=O)O)c2)C1=O | inactive | 
O=C1C(=O)C2(CCCCC2=O)C(c2ccccc2)N1c1ccccc1 (centres undefined) | inactive | 
O=C(O)c1cc(N2C(=O)c3c(c(-c4ccccc4)nn3Cc3ccccc3)C2c2ccc([N+](=O)[O-])cc2)ccc1O (centres undefined) | inactive | 
O=C(C1=C(O)C(=O)N(c2cccc(-c3ccccc3)c2)[C@@H]1c1ccc([N+](=O)[O-])cc1)c1ccccc1 |  | IC50 [2]: 37 µM
O=C(C1=C(O)C(=O)N(c2ccc(O)c(C(=O)O)c2)[C@@H]1c1ccc([N+](=O)[O-])cc1)c1ccc(Cl)cc1 | inactive | 
O=C(C1=C(O)C(=O)N(CCCc2ccccc2)C1c1ccc([N+](=O)[O-])cc1)c1ccccc1 (centres undefined) |  | IC50 [2]: 5 µM
O=C1C(=O)C2(CCCC2=O)C(c2ccc([N+](=O)[O-])cc2)N1c1ccc2c(c1)oc1ccccc12 (centres undefined) | inactive | 
Cc1ccc(C(=O)C2=C(O)C(=O)N(c3ccc(O)c(C(=O)O)c3)C2c2ccc([N+](=O)[O-])cc2)cc1 (centres undefined) | 65.6% | 
N=C1CC=CC=C1C1=C(N)C(=O)N(c2ccc(O)c(C(=O)O)c2)[C@@H]1c1ccc([N+](=O)[O-])cc1 | inactive | 
O=C(O)c1cc(N2C(=O)C(O)=C(c3nccs3)C2c2ccc([N+](=O)[O-])cc2)ccc1O (centres undefined) | 64.8% | 
Cn1nnc2cc(C3C(C(=O)c4ccccc4)=C(O)C(=O)N3c3ccc(O)c(C(=O)O)c3)ccc21 (centres undefined) |  | ΔTm [9]: < 0.5 °C
Nc1ccc(C2C(C(=O)c3ccccc3)=C(O)C(=O)N2c2ccc(O)c(C(=O)O)c2)cc1 (centres undefined) |  | IC50 [2]: 5 µM
O=C(O)c1cc(N2C(=O)C(O)=C(Cc3ccccc3)[C@H]2c2ccc([N+](=O)[O-])cc2)ccc1O | inactive | 
O=C1C(=O)C2(CCCC2=O)C(c2ccccc2)N1c1ccccc1 (centres undefined) | inactive | 

Continued, in another order:

inhibition [1] | Compound | further results
inactive | O=C(C1=C(O)C(=O)N(c2cccc([N+](=O)[O-])c2)[C@@H]1c1ccc([N+](=O)[O-])cc1)c1ccccc1 | 
inactive | O=C(C1=C(O)C(=O)N(c2cccc(-c3ccccc3)c2)C1c1ccc([N+](=O)[O-])cc1)C1CC1 (centres undefined) | 
inactive | CS(=O)(=O)c1ccc(C(=O)C2=C(O)C(=O)N(c3cccc(-c4ccccc4)c3)C2c2ccc([N+](=O)[O-])cc2)cc1 (centres undefined) | 
inactive | O=C1C(=O)C2(CCCCC2=O)C(c2ccc([N+](=O)[O-])cc2)N1c1cccc(-c2ccccc2)c1 (centres undefined) | 
inactive | O=C1C(=O)C2(CCCC2=O)C(c2ccc([N+](=O)[O-])cc2)N1c1cccc(-c2ccccc2)c1 (centres undefined) | 
inactive | O=C(C1=C(O)C(=O)N(c2cccc([N+](=O)[O-])c2)[C@H]1c1ccc([N+](=O)[O-])cc1)c1ccccc1 | 
84% | O=C(C1=C(O)C(=O)N(c2cccc(-c3ccccc3)c2)C1c1ccc([N+](=O)[O-])cc1)c1ccccc1 (racemic) | Activity [3]: Dose-Dependent Effect; inhibition [4]: Dose-Dependent Effect; Activity [5]: Dose-Dependent Effect; fold change (FC) [6]: 2; Activity [7]: Dose-Dependent Effect; fold change (FC) [8]: 2
inactive | COc1ccc(C(=O)C2=C(O)C(=O)N(c3cccc(-c4ccccc4)c3)C2c2ccc([N+](=O)[O-])cc2)cc1OC (centres undefined) | 
inactive | O=C(C1=C(O)C(=O)N(c2cccc(-c3ccccc3)c2)C1c1ccc([N+](=O)[O-])cc1)c1ccc(F)cc1O (centres undefined) | 
